# From article PMC13267044, “Ten previously undescribed norsesquiterpenoids from the fungus Marasmiellus candidus and their anti-inflammatory activities” (Mycology, 2025)
# Legend:
# RAW 264.7 cells = experiment: NO production inhibition in LPS-induced RAW 264.7 cells (Griess reagent method); format: cell-based; settings: LPS-induced (10 μg/mL) RAW 264.7 cells, 24 h, mean ± standard deviation (n = 3)
# Description: RAW 264.7 cells were cultured as above, then divided into blank control, LPS-induced (10 μg/mL, model), and sample-treated groups. After 24 h, supernatants were centrifuged (12,000 r/min, 5 min) and collected. NO production was assessed using the standard Griess reagent method (Fan et al. [2023]).
# Inhibition rate (%) = [(NOmodel – NOsample)/(NOmodel – NOblank)] × 100%.
# RAW264.7 macrophages = experiment: Cell viability assay (CCK-8) in RAW264.7 macrophages; format: cell-based; settings: RAW 264.7 cells, 24 h, tested at 20, 40, 80 μmol/L
# Description: RAW264.7 macrophages were seeded in 96-well plates (5 × 10^4 cells/well) and cultured at 37 °C with 5% CO₂ for 24 h. After adhesion, test samples (20, 40, 80 μmol/L) or medium (blank) were added and incubated for 24 h. Subsequently, 10 μL of CCK-8 solution was added, and after 2 h of incubation, the absorbance was measured at 450 nm.
# Cell viability (%) = (ODsample/ODblank) × 100%
"IC50 (RAW 264.7 cells; Mus musculus, RAW264.7)",SMILES,Cytotoxicity (RAW264.7 macrophages),IC50 (RAW 264.7 cells)
> 100 µM,"COC(=O)c1c(C(=O)O)ccc2c1C(=O)C(O)=CC2(C)C [Compound 10, Marasmielolic acid F]",> 80 µmol/L,
15.5 ± 1.4 µM,"C[C@@H]1OC(=O)c2c1ccc1c2COC1=O [Compound 4, 10-normarasmiellactone R]",> 80 µmol/L,
,"N=C(N)NN [Aminoguanidine, aminoguanidine, reference compound]",> 80 µmol/L,12.5 ± 1.8 µM
22.1 ± 2.6 µM,"CC(=O)OC[C@@]1(C)OC(=O)c2c1ccc1c2COC1=O [Compound 3, 10-O-acetylmarasmiellactone S]",> 80 µmol/L,
69.2 ± 3.1 µM,"CC(C)(C(=O)O)c1ccc(C(=O)O)c2c1C(=O)OC2 [Compound 7, normarasmielolic acid B]",> 80 µmol/L,
> 100 µM,"COC(=O)c1c(C(=O)O)ccc2c1C(=O)OC2(C)C [Compound 9, Marasmielolic acid E]",> 80 µmol/L,
53.5 ± 3.9 µM,"CC(C)(CC(=O)O)c1ccc(C(=O)O)c2c1C(=O)NC2=O [Compound 5, Marasmielolic acid A]",> 80 µmol/L,
50.8 ± 3.4 µM,"COC(=O)C(C)(C)c1ccc(C(=O)O)c2c1C(=O)OC2O (racemic) [Compound 8, (±)-Marasmielolic acid D]",> 80 µmol/L,
18.2 ± 1.9 µM,"CC1(C)OC(=O)c2c1ccc1c2COC1=O [Compound 1, Marasmiellactone R]",> 80 µmol/L,
16.7 ± 1.6 µM,"C[C@]1(CO)OC(=O)c2c1ccc1c2COC1=O [Compound 2, Marasmiellactone S]",> 80 µmol/L,
65.4 ± 4.6 µM,"CC(C)(CC(=O)O)c1ccc(C(=O)O)c2c1C(=O)OC2 [Compound 6, Marasmielolic acid B]",> 80 µmol/L,
